{
  "source": "paper PMC9334755",
  "about": "(Cancer Biology & Medicine, 2021)",
  "key": {"BTK [1]": {"biological_target": "T1, BTK (Homo sapiens, UniProt Q06187)", "T1 sequence (Q06187 whole entry)": "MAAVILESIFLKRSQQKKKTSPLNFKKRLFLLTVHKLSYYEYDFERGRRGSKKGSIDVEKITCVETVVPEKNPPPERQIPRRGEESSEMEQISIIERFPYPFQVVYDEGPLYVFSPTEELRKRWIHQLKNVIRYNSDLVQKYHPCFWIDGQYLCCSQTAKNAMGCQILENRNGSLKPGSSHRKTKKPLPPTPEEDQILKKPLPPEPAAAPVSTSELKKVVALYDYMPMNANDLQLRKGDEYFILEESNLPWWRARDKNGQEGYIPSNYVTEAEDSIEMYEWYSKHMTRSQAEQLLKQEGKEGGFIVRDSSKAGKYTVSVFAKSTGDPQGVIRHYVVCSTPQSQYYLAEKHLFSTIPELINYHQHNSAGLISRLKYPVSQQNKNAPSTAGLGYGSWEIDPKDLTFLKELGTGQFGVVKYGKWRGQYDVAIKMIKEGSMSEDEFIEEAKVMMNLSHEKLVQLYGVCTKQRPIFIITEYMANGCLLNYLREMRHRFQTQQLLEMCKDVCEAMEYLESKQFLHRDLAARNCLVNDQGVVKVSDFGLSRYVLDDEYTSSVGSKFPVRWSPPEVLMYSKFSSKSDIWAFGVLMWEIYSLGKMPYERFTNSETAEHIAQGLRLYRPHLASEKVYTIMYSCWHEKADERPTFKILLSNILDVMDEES", "experiment": "HTRF assay of BTK activity", "assay_type": "biochemical", "settings": "double reciprocal curve"}, "CSK": {"biological_target": "CSK (Homo sapiens, UniProt P41240)", "sequence (P41240 whole entry)": "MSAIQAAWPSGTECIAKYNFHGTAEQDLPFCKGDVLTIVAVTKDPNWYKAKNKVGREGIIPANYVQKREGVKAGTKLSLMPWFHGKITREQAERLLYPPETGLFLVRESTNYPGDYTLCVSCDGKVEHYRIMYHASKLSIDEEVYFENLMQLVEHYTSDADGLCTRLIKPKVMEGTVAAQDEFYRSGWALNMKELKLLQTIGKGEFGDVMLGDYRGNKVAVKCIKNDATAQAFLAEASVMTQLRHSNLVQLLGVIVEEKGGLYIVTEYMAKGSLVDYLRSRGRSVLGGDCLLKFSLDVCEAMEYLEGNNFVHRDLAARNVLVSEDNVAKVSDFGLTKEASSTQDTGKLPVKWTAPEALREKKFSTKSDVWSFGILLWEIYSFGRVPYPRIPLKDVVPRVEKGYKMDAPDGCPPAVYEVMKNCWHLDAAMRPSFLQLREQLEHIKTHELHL", "experiment": "Protein kinase panel at 1 µM, CSK", "assay_type": "biochemical"}, "HCK": {"biological_target": "HCK (Homo sapiens, UniProt P08631)", "sequence (P08631 whole entry)": "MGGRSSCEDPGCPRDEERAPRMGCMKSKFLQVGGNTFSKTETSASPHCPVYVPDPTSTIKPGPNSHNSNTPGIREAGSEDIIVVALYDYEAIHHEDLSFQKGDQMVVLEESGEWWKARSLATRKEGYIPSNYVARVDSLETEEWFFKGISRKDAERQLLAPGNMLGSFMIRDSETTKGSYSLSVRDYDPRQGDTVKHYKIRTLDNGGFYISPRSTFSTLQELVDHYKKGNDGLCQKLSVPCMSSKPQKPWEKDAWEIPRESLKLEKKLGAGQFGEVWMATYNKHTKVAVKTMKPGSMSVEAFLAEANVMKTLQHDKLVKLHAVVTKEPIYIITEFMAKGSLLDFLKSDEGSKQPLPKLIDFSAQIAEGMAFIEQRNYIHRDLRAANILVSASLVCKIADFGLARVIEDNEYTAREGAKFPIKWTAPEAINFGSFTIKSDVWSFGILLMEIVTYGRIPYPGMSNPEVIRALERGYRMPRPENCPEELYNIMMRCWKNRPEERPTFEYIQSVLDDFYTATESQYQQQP", "experiment": "Protein kinase panel at 1 µM, HCK", "assay_type": "biochemical"}, "PTK6": {"biological_target": "PTK6 (Homo sapiens, UniProt Q13882)", "experiment": "Protein kinase panel at 1 µM, PTK6", "assay_type": "biochemical"}, "Pfeiffer": {"system": "Pfeiffer", "experiment": "Cell viability assay (CellTiter-Blue), Pfeiffer", "assay_type": "cell-based, human", "settings": "Pfeiffer cells; read-out: IC50 (nM), growth of Pfeiffer", "procedure": "Cells were seeded on 96-well plates (9,000 cells/well), cultured at 37 °C in 5% CO2 overnight, and incubated with different concentrations of compounds for 3 or 7 days. Then the cells were stained with CellTiter-Blue® reagent (Promega) for 4 h at 37 °C. The fluorescence signals were detected with a FlexStation 3, and the IC50 values of each compound were determined with GraFit software (Version 6.0)."}, "CYP1A2": {"biological_target": "CYP1A2 (Homo sapiens, UniProt P05177)", "sequence (P05177 whole entry)": "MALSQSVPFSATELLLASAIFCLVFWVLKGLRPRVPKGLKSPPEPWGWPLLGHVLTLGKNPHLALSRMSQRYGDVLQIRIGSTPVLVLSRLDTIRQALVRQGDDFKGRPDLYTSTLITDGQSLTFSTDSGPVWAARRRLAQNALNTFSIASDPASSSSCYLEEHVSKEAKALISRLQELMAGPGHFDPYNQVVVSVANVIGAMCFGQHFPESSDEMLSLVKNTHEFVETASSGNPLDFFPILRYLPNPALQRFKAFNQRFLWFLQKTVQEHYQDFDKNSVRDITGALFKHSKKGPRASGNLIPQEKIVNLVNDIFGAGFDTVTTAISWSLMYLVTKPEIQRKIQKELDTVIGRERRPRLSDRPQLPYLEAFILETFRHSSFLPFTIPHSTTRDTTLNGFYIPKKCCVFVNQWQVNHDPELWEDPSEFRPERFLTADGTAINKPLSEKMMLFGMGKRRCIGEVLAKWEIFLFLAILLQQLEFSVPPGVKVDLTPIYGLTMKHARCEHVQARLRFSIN", "assay_type": "in vitro ADME", "description": "(§1) Cancer Biol Med Vol 19, No 7 July 2022 3\n(§2) Table S8 Inhibition of CYP isozymes by SY-1530\n(§3) Table S9 Preclinical safety of SY-1530\n(§4) Group Single-dose toxicity Multiple-dose toxicity\n(§5) Animal Rat Beagle dog Rat Beagle dog\n(§6) (1 picture or pasted object on this page, not shown here)"}, "CYP2C8": {"biological_target": "CYP2C8 (Homo sapiens, UniProt P10632)", "sequence (P10632 whole entry)": "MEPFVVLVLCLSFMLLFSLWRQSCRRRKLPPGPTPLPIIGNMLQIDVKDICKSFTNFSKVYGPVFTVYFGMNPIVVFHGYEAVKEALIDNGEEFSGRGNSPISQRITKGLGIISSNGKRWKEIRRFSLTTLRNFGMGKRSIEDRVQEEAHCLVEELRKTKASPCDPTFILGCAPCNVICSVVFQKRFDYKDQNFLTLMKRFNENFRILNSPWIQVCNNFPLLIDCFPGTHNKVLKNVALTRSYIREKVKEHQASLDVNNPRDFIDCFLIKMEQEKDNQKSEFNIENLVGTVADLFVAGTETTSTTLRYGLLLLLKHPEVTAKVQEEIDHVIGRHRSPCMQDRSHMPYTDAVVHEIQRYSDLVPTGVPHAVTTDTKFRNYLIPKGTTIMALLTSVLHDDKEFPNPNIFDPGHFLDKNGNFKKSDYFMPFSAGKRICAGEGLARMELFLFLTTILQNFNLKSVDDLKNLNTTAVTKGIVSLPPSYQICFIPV", "assay_type": "in vitro ADME", "description": "as §1, §2, §3, §4, §5, §6"}, "CYP2C9": {"biological_target": "CYP2C9 (Homo sapiens, UniProt P11712)", "sequence (P11712 whole entry)": "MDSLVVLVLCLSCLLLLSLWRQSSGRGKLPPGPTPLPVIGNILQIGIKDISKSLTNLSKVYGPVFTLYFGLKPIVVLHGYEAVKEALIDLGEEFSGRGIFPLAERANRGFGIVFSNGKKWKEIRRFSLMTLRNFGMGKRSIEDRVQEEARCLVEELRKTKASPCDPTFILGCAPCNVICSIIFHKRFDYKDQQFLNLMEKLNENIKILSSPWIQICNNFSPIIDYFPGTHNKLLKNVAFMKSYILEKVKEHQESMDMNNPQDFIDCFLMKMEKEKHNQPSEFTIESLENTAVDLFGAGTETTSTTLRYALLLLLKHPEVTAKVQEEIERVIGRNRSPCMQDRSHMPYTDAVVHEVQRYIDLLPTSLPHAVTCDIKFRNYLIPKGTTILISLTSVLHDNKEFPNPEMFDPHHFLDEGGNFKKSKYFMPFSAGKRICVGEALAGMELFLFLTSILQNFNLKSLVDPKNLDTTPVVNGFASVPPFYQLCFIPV", "assay_type": "in vitro ADME", "description": "as §1, §2, §3, §4, §5, §6"}, "CYP2B6": {"biological_target": "CYP2B6 (Homo sapiens, UniProt P20813)", "sequence (P20813 whole entry)": "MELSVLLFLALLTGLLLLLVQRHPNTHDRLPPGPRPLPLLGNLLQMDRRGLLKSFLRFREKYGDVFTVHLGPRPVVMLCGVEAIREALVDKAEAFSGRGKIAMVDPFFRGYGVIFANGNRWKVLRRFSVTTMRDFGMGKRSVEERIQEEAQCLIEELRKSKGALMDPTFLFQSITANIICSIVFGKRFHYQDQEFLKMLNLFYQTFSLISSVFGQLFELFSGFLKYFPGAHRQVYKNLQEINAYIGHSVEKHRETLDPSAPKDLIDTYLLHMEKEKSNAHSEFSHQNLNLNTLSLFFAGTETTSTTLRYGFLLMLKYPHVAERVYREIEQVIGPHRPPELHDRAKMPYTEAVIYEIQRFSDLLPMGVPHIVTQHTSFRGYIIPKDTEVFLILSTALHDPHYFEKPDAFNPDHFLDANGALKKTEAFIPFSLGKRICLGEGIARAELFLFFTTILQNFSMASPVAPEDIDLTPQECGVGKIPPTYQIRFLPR", "assay_type": "in vitro ADME", "description": "(§7) Table S8 Inhibition of CYP isozymes by SY-1530 […]\nas §6"}, "CYP2C19": {"biological_target": "CYP2C19 (Homo sapiens, UniProt P33261)", "sequence (P33261 whole entry)": "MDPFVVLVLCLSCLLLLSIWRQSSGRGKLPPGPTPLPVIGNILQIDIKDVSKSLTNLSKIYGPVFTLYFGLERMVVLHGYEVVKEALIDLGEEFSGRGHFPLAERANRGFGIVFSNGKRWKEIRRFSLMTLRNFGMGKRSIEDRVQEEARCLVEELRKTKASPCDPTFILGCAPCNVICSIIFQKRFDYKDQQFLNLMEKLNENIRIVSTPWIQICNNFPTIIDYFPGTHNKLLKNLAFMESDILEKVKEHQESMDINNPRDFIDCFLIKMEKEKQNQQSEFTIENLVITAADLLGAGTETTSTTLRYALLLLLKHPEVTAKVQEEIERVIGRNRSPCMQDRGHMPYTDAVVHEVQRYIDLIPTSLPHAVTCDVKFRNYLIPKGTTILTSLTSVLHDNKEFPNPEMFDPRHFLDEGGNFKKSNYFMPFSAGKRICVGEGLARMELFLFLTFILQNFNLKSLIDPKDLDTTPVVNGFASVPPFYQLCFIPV", "assay_type": "in vitro ADME", "description": "as §7, §6"}, "CYP2D6": {"biological_target": "CYP2D6 (Homo sapiens, UniProt P10635)", "sequence (P10635 whole entry)": "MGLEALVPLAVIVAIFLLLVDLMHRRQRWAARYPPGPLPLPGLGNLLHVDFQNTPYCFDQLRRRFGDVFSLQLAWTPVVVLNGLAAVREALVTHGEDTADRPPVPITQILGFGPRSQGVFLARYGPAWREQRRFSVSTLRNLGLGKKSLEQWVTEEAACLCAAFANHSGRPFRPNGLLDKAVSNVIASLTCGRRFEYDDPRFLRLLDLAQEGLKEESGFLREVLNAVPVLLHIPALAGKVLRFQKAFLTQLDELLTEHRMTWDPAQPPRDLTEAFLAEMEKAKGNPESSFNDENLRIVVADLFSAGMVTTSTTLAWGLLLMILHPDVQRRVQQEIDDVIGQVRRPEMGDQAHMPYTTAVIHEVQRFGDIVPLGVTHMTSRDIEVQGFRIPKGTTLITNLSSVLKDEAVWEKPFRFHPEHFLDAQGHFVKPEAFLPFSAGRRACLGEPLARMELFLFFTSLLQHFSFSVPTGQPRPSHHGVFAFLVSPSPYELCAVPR", "assay_type": "in vitro ADME", "description": "as §7, §6"}, "[2]": {"system": "spontaneous canine B-cell lymphoma", "experiment": "Spontaneous canine B-cell lymphoma", "assay_type": "in vivo, dog", "design": "key to Outcome: CR: complete response; PR: partial response; PD: progressive disease; SD: stable disease", "procedure": "Dogs with spontaneous lymphoma were purchased from the China Agricultural University Veterinary Teaching Hospital, and the study was approved by the institutional animal care and use committee of Shouyao Holdings (approval No. CTA-2014003). The inclusion criterion was a confirmed histologic diagnosis of B-cell lymphoma (on the basis of immunohistochemistry for CD21 and CD79a). SY-1530 capsules (20–40 mg) were administered daily until disease progression. The dogs were re-examined every week for 4 weeks and subsequently biweekly. The sum of the longest diameters of all target lesions was defined as the tumor burden. According to the criteria for evaluation of the response of peripheral nodal lymphoma in dogs developed by the Veterinary Cooperative Oncology Group, the response was classified as complete response, partial response, progressive disease, or stable disease."}, "BTK [3]": {"biological_target": "T1, BTK", "experiment": "Competition with fluorescent probe FL-SY-1530 in DOHH2 cells (Typhoon imaging)", "assay_type": "cell-based", "settings": "10 nM inhibitor 1 h, then 2.5 µM FL-SY-1530 1 h", "procedure": "Data are shown as the mean ± SEM. […] Data are shown as the mean ± SEM of 3 independent experiments. Statistical analysis was performed with Student’s t-test (**P < 0.01, ***P < 0.001). […] Cells were lysed and then analyzed by Western blot and fluorescent gel scanning. […] Cells were lysed and analyzed by Western blot and fluorescent gel scanning."}, "Pfeiffer cells": {"system": "Pfeiffer cells", "experiment": "Apoptosis detection (Annexin V / 7-AAD) in Pfeiffer cells", "assay_type": "cell-based", "settings": "24 h, Annexin V and 7-AAD", "procedure": "Apoptosis assays were performed with an Annexin V-PE Apoptosis Detection Kit I (BD Biosciences). Briefly, 5 × 10^5 Pfeiffer cells were seeded on 6-well plates and treated with BTK inhibitors at the indicated concentrations. After 24 h or 48 h, cells were collected and stained with PE Annexin V and 7-AAD according to the manufacturer’s instructions. FACS analysis was performed with a Guava flow cytometer.\nFigure 4 SY-1530 blocks B-cell receptor signaling and induces apoptosis. (A–D) Human B and T cells were purified and incubated with different concentrations of BTK inhibitors for 1 h. B cells were stimulated with 50 μg/mL anti-human IgM F(ab′)2, and T cells were stimulated with 50 μg/mL anti-CD3/CD28 beads overnight directly or after washout of BTK inhibitors before stimulation. The percentage of CD69 positive cells was analyzed by flow cytometry. Data are shown as the mean ± SEM (n = 3). Statistical analysis was performed with Student’s t-test (*P < 0.05, **P < 0.01, ***P < 0.001). (E) Pfeiffer cells and Romas cells were preincubated with different concentrations of compounds for 1 h, washed with PBS, and then stimulated with anti-IgM/anti-IgG (10 μg/mL) for 10 min. Cells were lysed and analyzed by Western blot with the indicated antibodies. […] The cells were stained with both PE-Annexin and 7-AAD and analyzed by flow cytometry. […] Cells were lysed and analyzed with specific antibodies."}, "[4]": {"settings": "dog, in vivo"}},
  "note": "Where two headings read alike, the source gives them in different places.",
  "data": [
    {"compound": "COC/C=C/C(=O)N1CC[C@@H](n2nc(-c3ccc(Oc4ccccc4)cc3)c(C(N)=O)c2N)C1", "note": "[SY-1530]", "values": [
      {"measurement": "Type of inhibition with respect to ATP", "setting": "BTK [1]", "value": "non-ATP competitive inhibitor"},
      {"measurement": "Inhibition (%), CSK", "setting": "CSK", "value": 84, "unit": "%"},
      {"measurement": "Inhibition (%), HCK", "setting": "HCK", "value": 67, "unit": "%"},
      {"measurement": "Inhibition (%), PTK6", "setting": "PTK6", "value": 92, "unit": "%"},
      {"measurement": "IC50", "setting": "Pfeiffer", "value": 71.4, "unit": "nM"},
      {"measurement": "IC50", "setting": "CYP1A2", "value": "> 25", "unit": "µM"},
      {"measurement": "IC50", "setting": "CYP2C8", "value": "> 25", "unit": "µM"},
      {"measurement": "IC50", "setting": "CYP2C9", "value": "> 25", "unit": "µM"},
      {"measurement": "IC50", "setting": "CYP2B6", "value": "> 25", "unit": "µM"},
      {"measurement": "IC50", "setting": "CYP2C19", "value": 23.8, "unit": "µM"},
      {"measurement": "IC50", "setting": "CYP2D6", "value": "> 25", "unit": "µM"},
      {"measurement": "Outcome", "setting": "[2]; Dog 01, stage IVb, dose 20/35 mg/kg, treatment interval 21 d", "value": "SD/PR"},
      {"measurement": "Outcome", "setting": "[2]; Dog 02, stage IVa, dose 20/30/40 mg/kg, treatment interval 150 d", "value": "CR"},
      {"measurement": "Outcome", "setting": "[2]; Dog 04, stage IVa, dose 20/30/40 mg/kg, treatment interval 21 d", "value": "SD"},
      {"measurement": "Outcome", "setting": "[2]; Dog 06, stage IVa, dose 20/30/40 mg/kg, treatment interval 21 d", "value": "SD"},
      {"measurement": "Outcome", "setting": "[2]; Dog 07, stage IVa, dose 20/30 mg/kg, treatment interval 14 d", "value": "SD"},
      {"measurement": "Outcome", "setting": "[2]; Dog 08, stage IVa, dose 35 mg/kg, treatment interval 21 d", "value": "SD"},
      {"measurement": "Outcome", "setting": "[2]; Dog 09, stage IVa, dose 35 mg/kg, treatment interval 21 d", "value": "SD"},
      {"measurement": "Outcome", "setting": "[2]; Dog 10, stage IVa, dose 35 mg/kg, treatment interval 28 d", "value": "PR"},
      {"measurement": "Outcome", "setting": "[2]; Dog 11, stage IIIa, dose 35 mg/kg, treatment interval 14 d", "value": "PR"},
      {"measurement": "Outcome", "setting": "[2]; Dog 12, stage IVa, dose 35 mg/kg, treatment interval 21 d", "value": "SD"},
      {"measurement": "Number of dogs with complete response", "setting": "[2]; of 10 dogs", "value": 1},
      {"measurement": "Number of dogs with partial response", "setting": "[2]; of 10 dogs", "value": 3},
      {"measurement": "Number of dogs with stable disease", "setting": "[2]; of 10 dogs", "value": 6},
      {"measurement": "Binding of FL-SY-1530 to BTK after pretreatment with inhibitor", "setting": "BTK [3]", "value": "scarcely bound"},
      {"measurement": "Apoptosis in Pfeiffer cells", "setting": "Pfeiffer cells", "value": "induced early and late apoptosis"},
      {"measurement": "AUC0–∞", "setting": "[4]; iv, 3 mg/kg", "value": 5458, "unit": "ng·h/mL"},
      {"measurement": "CL", "setting": "[4]; iv, 3 mg/kg", "value": 9.32, "unit": "mL/min/kg"},
      {"measurement": "Vss", "setting": "[4]; iv, 3 mg/kg", "value": 0.857, "unit": "L/kg"},
      {"measurement": "t½", "setting": "[4]; iv, 3 mg/kg", "value": 1.44, "unit": "h"},
      {"measurement": "AUC0–∞", "setting": "[4]; po, 10 mg/kg", "value": 4411, "unit": "ng·h/mL"},
      {"measurement": "Cmax", "setting": "[4]; po, 10 mg/kg", "value": 1039, "unit": "ng/mL"},
      {"measurement": "F (%)", "setting": "[4]; po, 10 mg/kg", "value": 24.2, "unit": "%"},
      {"measurement": "Tmax", "setting": "[4]; po, 10 mg/kg", "value": 1.08, "unit": "h"},
      {"measurement": "t½", "setting": "[4]; po, 10 mg/kg", "value": 3.85, "unit": "h"},
      {"measurement": "AUC0–∞", "setting": "[4]; po, 30 mg/kg", "value": 6365, "unit": "ng·h/mL"},
      {"measurement": "Cmax", "setting": "[4]; po, 30 mg/kg", "value": 1572, "unit": "ng/mL"},
      {"measurement": "F (%)", "setting": "[4]; po, 30 mg/kg", "value": 11.7, "unit": "%"},
      {"measurement": "Tmax", "setting": "[4]; po, 30 mg/kg", "value": 0.917, "unit": "h"},
      {"measurement": "t½", "setting": "[4]; po, 30 mg/kg", "value": 5.33, "unit": "h"},
      {"measurement": "AUC0–∞", "setting": "[4]; po, 100 mg/kg", "value": 9095, "unit": "ng·h/mL"},
      {"measurement": "Cmax", "setting": "[4]; po, 100 mg/kg", "value": 2127, "unit": "ng/mL"},
      {"measurement": "F (%)", "setting": "[4]; po, 100 mg/kg", "value": 5.00, "unit": "%"},
      {"measurement": "Tmax", "setting": "[4]; po, 100 mg/kg", "value": 1.25, "unit": "h"},
      {"measurement": "t½", "setting": "[4]; po, 100 mg/kg", "value": 5.03, "unit": "h"}
    ]}
  ]
}
